This is an account of results in the supplement of paper PMC11616607.

SMILES strings stand for the structures.

The test system of one assay is CAOV3. Description: drug sensitivity score (DSS) from 5-point dose-response viability curve (DSS (area-under-curve based score)); higher = more sensitive (stronger growth inhibition or killing); extreme values may be limits of the assay. The settings on record: exposure time: 72 h; concentration range: 5 concentrations over 10,000-fold range. In a few lines: (§1)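 Ovarian cancer and normal ovarian cell lines were tested in 384-well plates. Drugs were acoustically dispensed (Echo 550) in DMSO or water at five concentrations spanning a 10,000-fold range, then 1,500 cells per well were added and incubated 3 days at 37°C, 5% CO2. Viability was read by CellTiter-Glo luminescence on a PHERAstar FS. Drug sensitivity score was derived per cell line and drug with Breeze software; higher means more sensitive, zero means no response.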
`CC(C)(C)C[C@@H]1N[C@@H](C(=O)N[C@H]2CC[C@H](O)CC2)[C@H](c2cccc(Cl)c2F)[C@]12C(=O)Nc1cc(Cl)ccc12` came in with a drug sensitivity score of 0. On the same count and under the same terms, the value for `CC(C)Oc1ccc(C(=O)N[C@H](CNC(=O)CN(C)C)Cc2ccc(-c3cn4cccc([C@H](C)O)c4n3)cc2)cc1Cl` was 17.5; that for `CC[C@@H]1[C@H](F)C(=O)N[C@@H]1COc1nccc2cc(C(N)=O)c(OC)cc12` was 0.9; that for `CCc1cncnc1N1CCN(Cc2nc3ccc(C(F)(F)F)cc3[nH]2)CC1` was 0.9. Same read-out and setting: the value for `CCn1c(-c2nonc2N)nc2cnc(Oc3cccc(NC(=O)c4ccc(OCCN5CCOCC5)cc4)c3)cc21` was 1.6; that for `CN(C)CC#Cc1ccc(OCCCc2sc(N3CCc4cccc(C(=O)Nc5nc6ccccc6s5)c4C3)nc2C(=O)O)c(F)c1` was 7.5; that for `CN(c1ncccc1CNc1nc(Nc2ccc3c(c2)CC(=O)N3)ncc1C(F)(F)F)S(C)(=O)=O` was 7.4. Still for that read-out and setting: the value for `CNC(=O)c1ccc(C)c(-n2c(C)cc(OCc3ccc(F)cc3F)c(Br)c2=O)c1` was 0; that for `CNS(=O)(=O)Nc1nccc(Cc2c(C)c3ccc(Oc4ncccn4)cc3oc2=O)c1F` was 3.3.

With `CNc1ncc2cc(-c3cc(NC(=O)NCCC(C)(C)C)c(F)cc3C)c(C)nc2n1`, the drug sensitivity score was 7.9. Compound `CO[C@@H](C)Cn1c(=O)n(C)c2cnc3ccc(-c4cncc(C(C)(C)O)c4)cc3c21` showed a drug sensitivity score of 9.2. `COc1ccc(Cn2ccc3ccc(C(=O)NO)cc32)cc1` gave a drug sensitivity score of 1.1. Same read-out and setting: the value for `C[C@@H](Oc1ccc2[nH]nc(/C=C/c3cnn(CCO)c3)c2c1)c1c(Cl)cncc1Cl` was 6.9. On the same count and under the same terms, the value for `C[C@@H]1CN(CC(=O)Nc2ccc3c(c2)Cc2cccc(-c4cc(=O)cc(N5CCOCC5)o4)c2S3)C[C@H](C)O1` was 1.1; that for `C[C@H]1C[C@@H](n2c(Nc3ccc(OC(F)(F)F)cc3)nc3cc(CCC(=O)O)ccc32)CC(C)(C)C1` was 0. Same read-out and setting: the value for `Cc1c(-c2c(-c3ccc(F)o3)sc3ncnc(O[C@H](Cc4ccccc4OCc4ccnn4CC(F)(F)F)C(=O)O)c23)ccc(OCCN2CCN(C)CC2)c1Cl` was 0; that for `Cc1c(Cn2c(C)nc3c(C(=O)O)cc(N4CCOCC4)cc32)cccc1C(F)(F)F` was 0; that for `Cc1ccc(C(=O)N(CCCN)[C@@H](c2oc3cc(Cl)ccc3c(=O)c2Cc2ccccc2)C(C)C)cc1` was 5.8. Compound `Cc1cccc(CC(=O)N2CCc3c2ccc(-c2cn(C)c4ncnc(N)c24)c3F)n1` gave a drug sensitivity score of 0.4.

`Cc1nc(Nc2n[nH]c3c2CN(C(=O)N[C@H](CN(C)C)c2ccccc2)C3(C)C)c2sccc2n1` yielded a drug sensitivity score of 17.5.

`Cc1ncc(Cl)cc1NCc1ccc(C(=O)N[C@@H](CC2CCCC2)C(=O)NC2CC2)s1` registered a drug sensitivity score of 0. The same measure, in the same setting: the value for `Cn1cc(-c2ccc(F)c(C(F)(F)F)c2)nc1C1CCN(c2ncnc3[nH]ncc23)CC1` was 0. Compound `Cn1cc(C2=Nc3cc(NC(=O)C(N)C4CCCCC4)cc4c3C2=CNNC4=O)cn1` (stereo not drawn) registered a drug sensitivity score of 11. The compound `N#Cc1ccc(COC[C@H]2O[C@@H](n3c(NCc4ccc(Cl)c(Cl)c4)nc4c(N)ncnc43)[C@H](O)[C@@H]2O)cc1` displayed a drug sensitivity score of 3.8.

The compound `NCC(=O)Nc1ccc(-n2nc(C(F)(F)F)cc2-c2ccc3c(ccc4ccccc43)c2)cc1` showed a drug sensitivity score of 1.

Compound `NC[C@@](O)(c1ccc(Cl)cc1)c1ccc(-c2cn[nH]c2)cc1` returned a drug sensitivity score of 0.5. `Nc1nccc(-c2c(-c3ccc(F)cc3)ncn2C2CCCCC2)n1`: the drug sensitivity score stood at 1.7. The same measure, in the same setting: the value for `Nc1ncnc2c1c(COc1cccc(Cl)c1)nn2C1CCOCC1` was 0. On the same count and under the same terms, the value for `O=C(NOC[C@H](O)CO)c1ccc(F)c(F)c1Nc1ccc(I)cc1F` was 11.7.

Consider `O=C(Nc1ccc2[nH]nc(-c3ccncc3)c2c1)[C@@H]1CCN(CC(=O)N2CCN(c3ccc(-c4ncccn4)cc3)CC2)C1`, for which the drug sensitivity score came out at 12.2. On the same count and under the same terms, the value for `O=C(O)c1ccc(-c2c[nH]c3ncc(-c4ccccc4)cc23)cc1C1CCCC1` was 2.3; that for `O=C(O)c1ccc(CN2CCC(CN[C@@H]3C[C@H]3c3ccccc3)CC2)cc1` was 0.

The test system of another assay is COV362. The assay is described as above. The settings on record: exposure time: 72 h; concentration range: 5 concentrations over 10,000-fold range. A digest of the protocol:
as §1
As for `CC(C)(C)C[C@@H]1N[C@@H](C(=O)N[C@H]2CC[C@H](O)CC2)[C@H](c2cccc(Cl)c2F)[C@]12C(=O)Nc1cc(Cl)ccc12`, the drug sensitivity score was 1.2. Same read-out and setting: the value for `CC(C)Oc1ccc(C(=O)N[C@H](CNC(=O)CN(C)C)Cc2ccc(-c3cn4cccc([C@H](C)O)c4n3)cc2)cc1Cl` was 6; that for `CC[C@@H]1[C@H](F)C(=O)N[C@@H]1COc1nccc2cc(C(N)=O)c(OC)cc12` was 0; that for `CCc1cncnc1N1CCN(Cc2nc3ccc(C(F)(F)F)cc3[nH]2)CC1` was 0.

Compound `CCn1c(-c2nonc2N)nc2cnc(Oc3cccc(NC(=O)c4ccc(OCCN5CCOCC5)cc4)c3)cc21` came in with a drug sensitivity score of 0.2. On to `CN(C)CC#Cc1ccc(OCCCc2sc(N3CCc4cccc(C(=O)Nc5nc6ccccc6s5)c4C3)nc2C(=O)O)c(F)c1`, for which the drug sensitivity score came to 1.6. The same measure, in the same setting: the value for `CN(c1ncccc1CNc1nc(Nc2ccc3c(c2)CC(=O)N3)ncc1C(F)(F)F)S(C)(=O)=O` was 3.5; that for `CNC(=O)c1ccc(C)c(-n2c(C)cc(OCc3ccc(F)cc3F)c(Br)c2=O)c1` was 0; that for `CNS(=O)(=O)Nc1nccc(Cc2c(C)c3ccc(Oc4ncccn4)cc3oc2=O)c1F` was 0. Same read-out and setting: the value for `CNc1ncc2cc(-c3cc(NC(=O)NCCC(C)(C)C)c(F)cc3C)c(C)nc2n1` was 4.2; that for `CO[C@@H](C)Cn1c(=O)n(C)c2cnc3ccc(-c4cncc(C(C)(C)O)c4)cc3c21` was 3.8; that for `COc1ccc(Cn2ccc3ccc(C(=O)NO)cc32)cc1` was 0. On the same count and under the same terms, the value for `C[C@@H](Oc1ccc2[nH]nc(/C=C/c3cnn(CCO)c3)c2c1)c1c(Cl)cncc1Cl` was 2.2. Take `C[C@@H]1CN(CC(=O)Nc2ccc3c(c2)Cc2cccc(-c4cc(=O)cc(N5CCOCC5)o4)c2S3)C[C@H](C)O1`: the drug sensitivity score is 1.2. `C[C@H]1C[C@@H](n2c(Nc3ccc(OC(F)(F)F)cc3)nc3cc(CCC(=O)O)ccc32)CC(C)(C)C1` had a drug sensitivity score of 0.

`Cc1c(-c2c(-c3ccc(F)o3)sc3ncnc(O[C@H](Cc4ccccc4OCc4ccnn4CC(F)(F)F)C(=O)O)c23)ccc(OCCN2CCN(C)CC2)c1Cl` yielded a drug sensitivity score of 0.4.
